{
  "source": "ChEMBL document CHEMBL3045128",
  "about": "“Borrelidin, a potent antifungal agent: insight into the antifungal mechanism against Phytophthora sojae” (J Agric Food Chem, 2012)",
  "key": {"[1]": {"molecular_target": "T1, Threonyl-tRNA synthase (Phytophthora sojae) (UniProt G3FIN0)", "T1 sequence (whole entry)": "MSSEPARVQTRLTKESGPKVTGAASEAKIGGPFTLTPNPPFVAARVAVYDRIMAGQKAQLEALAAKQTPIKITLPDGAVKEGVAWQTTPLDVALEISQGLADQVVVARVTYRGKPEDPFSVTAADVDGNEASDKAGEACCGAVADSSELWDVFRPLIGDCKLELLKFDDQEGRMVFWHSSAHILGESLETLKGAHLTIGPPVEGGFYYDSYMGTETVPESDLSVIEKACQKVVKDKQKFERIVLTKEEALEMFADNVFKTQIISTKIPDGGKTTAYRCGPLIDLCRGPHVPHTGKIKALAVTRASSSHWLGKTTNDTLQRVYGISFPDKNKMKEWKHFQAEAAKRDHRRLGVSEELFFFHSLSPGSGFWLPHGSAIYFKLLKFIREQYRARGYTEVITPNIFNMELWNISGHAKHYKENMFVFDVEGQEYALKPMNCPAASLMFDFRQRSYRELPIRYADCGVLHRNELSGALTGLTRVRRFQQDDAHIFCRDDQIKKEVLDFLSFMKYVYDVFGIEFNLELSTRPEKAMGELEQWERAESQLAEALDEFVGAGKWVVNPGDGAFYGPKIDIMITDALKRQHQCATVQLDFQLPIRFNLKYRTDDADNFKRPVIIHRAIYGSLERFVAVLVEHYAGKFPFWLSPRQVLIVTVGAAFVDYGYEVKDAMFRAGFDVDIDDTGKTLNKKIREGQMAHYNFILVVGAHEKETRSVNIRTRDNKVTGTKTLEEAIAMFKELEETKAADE", "test": "Binding affinity to C-terminal His6-tagged Phytophthora sojae race 1 recombinant ThrRS expressed in Escherichia coli BL21 (Codonplus DE3) at 20 to 200 uM at 27 to 47 degC after 30 min by fluorescence quenching assay"}, "[2]": {"molecular_target": "T1, Threonyl-tRNA synthase (Phytophthora sojae)", "test": "Binding affinity to C-terminal His6-tagged Phytophthora sojae race 1 recombinant ThrRS expressed in Escherichia coli BL21 (Codonplus DE3) assessed as increase in alpha helicity of the protein at protein to compound ratio of 1:1 by CD spectroscopy (reference value: 18.3%)"}, "[3]": {"molecular_target": "T1, Threonyl-tRNA synthase (Phytophthora sojae)", "test": "Binding affinity to C-terminal His6-tagged Phytophthora sojae race 1 recombinant ThrRS expressed in Escherichia coli BL21 (Codonplus DE3) assessed as Stern-Volmer quenching constant at 27 degC by fluorescence spectroscopy"}, "Phytophthora sojae [4]": {"system": "Phytophthora sojae", "test": "Antifungal activity against Phytophthora sojae race 1 assessed as radial growth inhibition at 0.008 ug/ml incubated at 28 degC in the dark for 6 to 8 days in presence of 0.2 to 0.6 mM L-aspargine", "assay_type": "functional, organism-based"}, "Pythium": {"system": "Pythium", "test": "Antifungal activity against Pythium species", "assay_type": "functional, organism-based"}, "Phytophthora sojae [5]": {"system": "Phytophthora sojae", "test": "Antifungal activity against Phytophthora sojae race 1 assessed as radial growth inhibition at 0.006 ug/ml incubated at 28 degC in the dark for 6 to 8 days in presence of 0.6 mM threonine", "assay_type": "functional, organism-based"}, "Phytophthora sojae [6]": {"system": "Phytophthora sojae", "test": "Antifungal activity against Phytophthora sojae race 1 assessed as radial growth inhibition at 0.008 ug/ml incubated at 28 degC in the dark for 6 to 8 days in presence of 0.2 to 0.6 mM tyrosine", "assay_type": "functional, organism-based"}, "[7]": {"molecular_target": "T1, Threonyl-tRNA synthase (Phytophthora sojae)", "test": "Binding affinity to C-terminal His6-tagged Phytophthora sojae race 1 recombinant ThrRS expressed in Escherichia coli BL21 (Codonplus DE3) assessed as increase in alpha helicity of the protein at protein to compound ratio of 1:5 by CD spectroscopy (reference value: 18.3%)"}, "[8]": {"molecular_target": "T1, Threonyl-tRNA synthase (Phytophthora sojae)", "test": "Binding affinity to C-terminal His6-tagged Phytophthora sojae race 1 recombinant ThrRS expressed in Escherichia coli BL21 (Codonplus DE3) assessed as quenching rate constant at 27 degC by fluorescence spectroscopy"}, "[9]": {"molecular_target": "T1, Threonyl-tRNA synthase (Phytophthora sojae)", "test": "Binding affinity to C-terminal His6-tagged Phytophthora sojae race 1 recombinant ThrRS expressed in Escherichia coli BL21 (Codonplus DE3) assessed as static fluorescence quenching by FRET analysis"}, "Threonyl-tRNA synthase": {"molecular_target": "T2, Threonyl-tRNA synthase (Phytophthora sojae, UniProt G3FIN0)", "T2 sequence (G3FIN0 whole entry)": "T1 sequence (whole entry)", "test": "Inhibition of C-terminal His6-tagged Phytophthora sojae race 1 recombinant ThrRS expressed in Escherichia coli BL21 (Codonplus DE3) assessed as reduction in initial velocity at the step of threonine activation preincubated for 10 min with 4 uM enzyme before threonine addition measured after 30 min by HPLC analysis"}, "Phytophthora sojae [10]": {"system": "Phytophthora sojae", "test": "Antifungal activity against Phytophthora sojae race 1 assessed as radial growth inhibition at 0.008 ug/ml incubated at 28 degC in the dark for 6 to 8 days in presence of 0.2 to 0.6 mM alanine", "assay_type": "functional, organism-based"}, "[11]": {"molecular_target": "T1, Threonyl-tRNA synthase (Phytophthora sojae)", "test": "Binding affinity to C-terminal His6-tagged Phytophthora sojae race 1 recombinant ThrRS expressed in Escherichia coli BL21 (Codonplus DE3) assessed as Stern-Volmer quenching constant at 47 degC by fluorescence spectroscopy"}, "[12]": {"molecular_target": "T1, Threonyl-tRNA synthase (Phytophthora sojae)", "test": "Binding affinity to C-terminal His6-tagged Phytophthora sojae race 1 recombinant ThrRS expressed in Escherichia coli BL21 (Codonplus DE3) assessed as Stern-Volmer quenching constant at 37 degC by fluorescence spectroscopy"}, "Phytophthora sojae [13]": {"system": "Phytophthora sojae", "test": "Antifungal activity against Phytophthora sojae race 1 assessed as radial growth inhibition at 0.008 ug/ml incubated at 28 degC in the dark for 6 to 8 days in presence of 0.2 to 0.6 mM glutamine", "assay_type": "functional, organism-based"}, "[14]": {"molecular_target": "T1, Threonyl-tRNA synthase (Phytophthora sojae)", "test": "Binding affinity to C-terminal His6-tagged Phytophthora sojae race 1 recombinant ThrRS expressed in Escherichia coli BL21 (Codonplus DE3) assessed as decrease in beta sheet content of the protein at protein to compound ratio of 1:5 by CD spectroscopy (reference value: 25.6%)", "parameters": "scale not given: the % may be the effect or the level left"}, "[15]": {"molecular_target": "T1, Threonyl-tRNA synthase (Phytophthora sojae)", "test": "Binding affinity to C-terminal His6-tagged Phytophthora sojae race 1 recombinant ThrRS expressed in Escherichia coli BL21 (Codonplus DE3) assessed as quenching rate constant at 37 degC by fluorescence spectroscopy"}, "[16]": {"molecular_target": "T1, Threonyl-tRNA synthase (Phytophthora sojae)", "test": "Binding affinity to C-terminal His6-tagged Phytophthora sojae race 1 recombinant ThrRS expressed in Escherichia coli BL21 (Codonplus DE3) assessed as positive entropy and enthalpy changes by themodynamic analysis"}, "[17]": {"molecular_target": "T1, Threonyl-tRNA synthase (Phytophthora sojae)", "test": "Binding affinity to C-terminal His6-tagged Phytophthora sojae race 1 recombinant ThrRS expressed in Escherichia coli BL21 (Codonplus DE3) assessed as equilibrium binding constant by fluorescence spectroscopy"}, "[18]": {"molecular_target": "T1, Threonyl-tRNA synthase (Phytophthora sojae)", "test": "Binding affinity to C-terminal His6-tagged Phytophthora sojae race 1 recombinant ThrRS expressed in Escherichia coli BL21 (Codonplus DE3) assessed as decrease in beta sheet content of the protein at protein to compound ratio of 1:1 by CD spectroscopy (reference value: 25.6%)", "parameters": "scale not given: the % may be the effect or the level left"}, "[19]": {"molecular_target": "T1, Threonyl-tRNA synthase (Phytophthora sojae)", "test": "Binding affinity to C-terminal His6-tagged Phytophthora sojae race 1 recombinant ThrRS expressed in Escherichia coli BL21 (Codonplus DE3) assessed as quenching rate constant at 47 degC by fluorescence spectroscopy"}},
  "note": "Calls of active or inactive are those of the source. No cut-off for these calls is given here.",
  "data": [
    {"smiles": "C[C@@H]1C[C@H](C)C[C@H](C)[C@@H](O)CC(=O)O[C@H]([C@@H]2CCC[C@H]2C(=O)O)C/C=C/C=C(/C#N)[C@H](O)[C@@H](C)C1", "note": "[BORRELIDIN]", "values": [
      {"measurement": "Activity", "setting": "[1]", "value": "Active"},
      {"measurement": "Activity", "setting": "[2]", "value": 24.4, "unit": "%"},
      {"measurement": "KSV", "setting": "[3]", "value": 1.54, "unit": "×10⁴ /M"},
      {"measurement": "growth inhibition (GI)", "setting": "Phytophthora sojae [4]", "value": "Active"},
      {"measurement": "EC50", "setting": "Pythium", "value": 0.01, "unit": "mg/L"},
      {"measurement": "growth inhibition (GI)", "setting": "Phytophthora sojae [5]", "value": "inactive"},
      {"measurement": "growth inhibition (GI)", "setting": "Phytophthora sojae [6]", "value": "Active"},
      {"measurement": "Activity", "setting": "[7]", "value": 25.7, "unit": "%"},
      {"measurement": "Kq", "setting": "[8]", "value": 1.54, "unit": "×10¹² L/mol/s"},
      {"measurement": "Activity", "setting": "[9]", "value": "Active"},
      {"measurement": "IC50", "setting": "Threonyl-tRNA synthase", "value": 8, "unit": "µM"},
      {"measurement": "Ki", "setting": "Threonyl-tRNA synthase; read-out: Ki(app)", "value": 10, "unit": "µM"},
      {"measurement": "growth inhibition (GI)", "setting": "Phytophthora sojae [10]", "value": "Active"},
      {"measurement": "KSV", "setting": "[11]", "value": 1.23, "unit": "×10⁴ /M"},
      {"measurement": "KSV", "setting": "[12]", "value": 1.33, "unit": "×10⁴ /M"},
      {"measurement": "growth inhibition (GI)", "setting": "Phytophthora sojae [13]", "value": "Active"},
      {"measurement": "Activity", "setting": "[14]", "value": 21.8, "unit": "%"},
      {"measurement": "Kq", "setting": "[15]", "value": 1.33, "unit": "×10¹² L/mol/s"},
      {"measurement": "Activity", "setting": "[16]", "value": "Active"},
      {"measurement": "KA", "setting": "[17]", "value": 2.55, "unit": "×10⁵ /M"},
      {"measurement": "Activity", "setting": "[18]", "value": 22.4, "unit": "%"},
      {"measurement": "Kq", "setting": "[19]", "value": 1.23, "unit": "×10¹² L/mol/s"}
    ]}
  ]
}
